What all share (type): functional
For test [1], the system named is Streptococcus pneumoniae. Briefly: Antimicrobial activity against erythromycin-susceptible Streptococcus pneumoniae ATCC 49619 incubated for 20 to 24 hrs by two-fold microbroth dilution method.
In test [2] the test system is Streptococcus pneumoniae. Briefly: Antimicrobial activity against penicillin-susceptible Streptococcus pneumoniae PU09 incubated for 20 to 24 hrs by two-fold microbroth dilution method. (Dilution methods test growth across graded concentrations, often in twofold steps.)
Test [3] relates to Streptococcus pyogenes. Put plainly: Antimicrobial activity against Streptococcus pyogenes 01-968 expressing inducible ermA incubated for 20 to 24 hrs by two-fold microbroth dilution method.
The test system of test [4] is Staphylococcus aureus. Briefly: Antimicrobial activity against methicillin-resistant Staphylococcus aureus PU32 expressing inducible ermA incubated for 20 hrs by two-fold microbroth dilution method. The following applies: PU32, 20 h.
The test system of test [5] is Staphylococcus aureus. Put plainly: Antimicrobial activity against methicillin-resistant Staphylococcus aureus PU20 expressing constitutive ermC incubated for 20 hrs by two-fold microbroth dilution method. The following applies: PU20, 20 h.
The subject of test [6] is Haemophilus influenzae. Put plainly: Antimicrobial activity against azithromycin-susceptible and ampicillin-resistant Haemophilus influenzae 11P037 incubated for 20 to 24 hrs by two-fold microbroth dilution method.
In test [7] the test system is Streptococcus pyogenes. Briefly: Antimicrobial activity against Streptococcus pyogenes 12-207 expressing mef incubated for 20 to 24 hrs by two-fold microbroth dilution method.
Test [8] relates to Moraxella catarrhalis. Put plainly: Antimicrobial activity against erythromycin-susceptible Moraxella catarrhalis 11B366 incubated for 20 hrs by two-fold microbroth dilution method. The following applies: 11B366, 20 h.
In test [9] the test system is Streptococcus pneumoniae. Briefly: Bactericidal activity against erythromycin-susceptible Streptococcus pneumoniae ATCC 49619 incubated for 20 to 24 hrs followed by sub-culturing for 24 hrs in absence of compound.
Test [10] has as its system Streptococcus pneumoniae. Briefly: Bactericidal activity against penicillin-susceptible Streptococcus pneumoniae PU09 incubated for 20 to 24 hrs followed by sub-culturing for 24 hrs in absence of compound.
The subject of test [11] is Streptococcus pyogenes. Briefly: Bactericidal activity against Streptococcus pyogenes 01-968 expressing inducible ermA incubated for 20 to 24 hrs followed by sub-culturing for 24 hrs in absence of compound.
Test [12] has as its system Streptococcus pyogenes. Put plainly: Bactericidal activity against Streptococcus pyogenes 12-207 expressing mef incubated for 20 to 24 hrs followed by sub-culturing for 24 hrs in absence of compound.
Test [13] has as its system Haemophilus influenzae. Briefly: Bactericidal activity against azithromycin-susceptible and ampicillin-resistant Haemophilus influenzae 11P037 incubated for 20 to 24 hrs followed by sub-culturing for 24 hrs in absence of compound.
Test [14] has as its system Staphylococcus aureus. Briefly: Bactericidal activity against methicillin-resistant Staphylococcus aureus PU32 expressing inducible ermA incubated for 20 hrs followed by sub-culturing for 24 hrs in absence of compound.
The subject of test [15] is Staphylococcus aureus. Put plainly: Bactericidal activity against methicillin-resistant Staphylococcus aureus PU20 expressing constitutive ermC incubated for 20 hrs followed by sub-culturing for 24 hrs in absence of compound.
Test [16] relates to Moraxella catarrhalis. Put plainly: Bactericidal activity against erythromycin-susceptible Moraxella catarrhalis 11B366 incubated for 20 hrs followed by sub-culturing for 24 hrs in absence of compound.
Test [17] deals with Streptococcus pneumoniae. Briefly: Ratio of MBC to MIC against erythromycin-susceptible Streptococcus pneumoniae ATCC 49619.
Test [18] deals with Streptococcus pneumoniae. Briefly: Ratio of MBC to MIC against penicillin-susceptible Streptococcus pneumoniae PU09.
For test [19], the system named is Streptococcus pyogenes. Put plainly: Ratio of MBC to MIC against Streptococcus pyogenes 01-968 expressing inducible ermA.
The subject of test [20] is Streptococcus pyogenes. Briefly: Ratio of MBC to MIC against Streptococcus pyogenes 12-207 expressing mef.
Test [21] relates to Haemophilus influenzae. Briefly: Ratio of MBC to MIC against azithromycin-susceptible and ampicillin-resistant Haemophilus influenzae 11P037.
For test [22], the system named is Staphylococcus aureus. Put plainly: Ratio of MBC to MIC against methicillin-resistant Staphylococcus aureus PU32 expressing inducible ermA.
For test [23], the system named is Staphylococcus aureus. Briefly: Ratio of MBC to MIC against methicillin-resistant Staphylococcus aureus PU20 expressing constitutive ermC.
In test [24] the test system is Moraxella catarrhalis. Briefly: Ratio of MBC to MIC against erythromycin-susceptible Moraxella catarrhalis 11B366.

Structures are written as SMILES. Values after ≈ are worked out from the molar mass of the structure shown.

1 compound from ChEMBL document CHEMBL3611985, “Synthesis and structure-activity relationships of novel 9-oxime acylides with improved bactericidal activity” (2015) can be followed below.

Regarding `CC[C@H]1OC(=O)[C@H](C)C(=O)[C@H](C)[C@@H](O[C@@H]2O[C@H](C)C[C@H](N(C)C)[C@H]2O)[C@](C)(OC)C[C@@H](C)/C(=N\OC/C=C/c2cnc3ccccc3c2)[C@H](C)[C@H]2OC(=O)O[C@@]21C`, the MIC against Streptococcus pneumoniae [1] is ≤ 0.008 µg/mL; against Streptococcus pneumoniae [2], 0.25 µg/mL (≈ 0.314 µM); against Streptococcus pyogenes [3], 0.062 µg/mL (≈ 0.0779 µM); against Staphylococcus aureus [4], 1 µg/mL (≈ 1.26 µM); in the test with Staphylococcus aureus [5] it was 32 µg/mL (≈ 40.2 µM); against Haemophilus influenzae [6], 8 µg/mL (≈ 10.1 µM). Further, the figures for the MIC against Streptococcus pyogenes [7] and with Moraxella catarrhalis [8] were 0.016 µg/mL (≈ 0.0201 µM) and 2 µg/mL (≈ 2.51 µM), respectively. In addition, the MBC was 0.031 µg/mL (≈ 0.0389 µM) with Streptococcus pneumoniae [9]; 0.5 µg/mL (≈ 0.628 µM) in the test on Streptococcus pneumoniae [10]; > 0.5 µg/mL against Streptococcus pyogenes [11]; > 0.125 µg/mL against Streptococcus pyogenes [12]; > 64 µg/mL in the test on Haemophilus influenzae [13]; > 8 µg/mL in the test with Staphylococcus aureus [14]. Moreover, the figures for the MBC against Staphylococcus aureus [15] and with Moraxella catarrhalis [16] were 32 µg/mL (≈ 40.2 µM) and 2 µg/mL (≈ 2.51 µM), respectively. Also, the Ratio result with Streptococcus pneumoniae [17] is reported as “>=4”; with Streptococcus pneumoniae [18], 2; in the test on Streptococcus pyogenes [19], >8; in the test on Streptococcus pyogenes [20] it was >8; with Haemophilus influenzae [21] it was >8; with Staphylococcus aureus [22], >8. In addition, the Ratio in the test with Staphylococcus aureus [23] and with Moraxella catarrhalis [24] was 1 in each case.
